These results are taken from ChEMBL document CHEMBL1201862, “PubChem BioAssay data set” (2004).

Holding throughout (test): NCI tumour cell line growth inhibition, 48 h
Assay [1] relates to 786-0.
Assay [2] has as its system CAKI-1.
For assay [3], the system named is CCRF-CEM.
Assay [4] concerns HCT-116.
For assay [5], the system named is HOP-62.
For assay [6], the system named is HOP-92.
The subject of assay [7] is M14.
Assay [8] has as its system NCI-H226.
Assay [9] relates to NCI-H522.
Assay [10] relates to NCI/ADR-RES.
Assay [11] relates to OVCAR-5.
Assay [12] relates to PC-3.
Assay [13] concerns RXF 393.
The subject of assay [14] is SF-539.
Assay [15] deals with SK-MEL-5.
Assay [16] deals with SN12C.
Assay [17] concerns SR.
The test system of assay [18] is TK-10.
Assay [19] relates to UACC-257.
The test system of assay [20] is UACC-62.

The structures appear in SMILES notation.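 Exposure lasted 48 hours, with cells grown in 96-well plates and compounds tested at five concentrations. At the GI50, growth is halved.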 Activity calls are given as the source filed them. Cut-off read from the data, not from the text of the source: active = GI50 up to about 1.1 µM and inactive = higher. Where a SMILES comes first, the peptide text is derived from it. The star is where a group is joined. X33 = O=C(c1ccc(-c2ccc(Cl)cc2Cl)o1)* Bounds are passed on as bounds.

In the case of `Oc1ccc(CNCc2ccccc2)c2cccnc12`, the GI50 in [1] was 0.383 µM (active); in assay [2] it was 0.48 µM (active); in [3], 0.0436 µM (active); in assay [4] it was 0.0594 µM (active); in [5], 0.0853 µM (active); in [6], 0.177 µM (active). In addition, the GI50 in assay [7] is 0.27 µM (active); in [8] it was 5 µM (inactive); in [9], 0.222 µM (active); in [10], 0.959 µM (active); in assay [11], 1.22 µM (inactive); in [12], 0.336 µM (active). Further, the GI50 was 0.116 µM (active) in assay [13]; 0.34 µM (active) in assay [14]; 0.191 µM (active) in assay [15]; 0.0601 µM (active) in assay [16]; 0.182 µM (active) in [17]; 0.282 µM (active) in [18]. Further, the values for the GI50 in assay [19] and in assay [20] were 0.262 µM (active) and 0.5 µM (active), respectively.
For the compound `CCC(C)C(NC(=O)CNC(=O)C(Cc1ccccc1)NC(=O)C1CCCN1C(=O)c1ccc(-c2ccc(Cl)cc2Cl)o1)C(=O)OC` (configuration not stated) (X33-PFGI-OMe; configuration not given here), the GI50 in [1] was 27.1 µM (inactive); in assay [2], 31 µM (inactive); in [3], 8.09 µM (inactive); in [4] it was 13.6 µM (inactive); in assay [5] it was 31.1 µM (inactive); in assay [6], 11.2 µM (inactive). The GI50 in assay [7] was 46.8 µM (inactive); in assay [8] it was > 100 µM (inactive); in assay [9], 29.8 µM (inactive); in [10], 36.7 µM (inactive); in assay [11], 74.8 µM (inactive); in assay [12], 8 µM (inactive). In addition, the GI50 in [13] is 19.4 µM (inactive); in [14], 27.2 µM (inactive); in assay [15], 12.2 µM (inactive); in assay [16], 19.8 µM (inactive); in assay [17], 12.5 µM (inactive); in assay [18] it was 51.9 µM (inactive). The GI50 is 16.8 µM (inactive) in [19] and 25.2 µM (inactive) in assay [20].
As to `O=C(Nc1c(Cl)cccc1Cl)c1c(Cl)c(Cl)c(Cl)c(Cl)c1-c1nc2ccccc2[nH]1`, the GI50 in assay [1] is 36.4 µM (inactive); in assay [2] it was 62.7 µM (inactive); in [3], > 100 µM (inactive); in assay [4] it was 43.5 µM (inactive); in assay [5] it was 0.0501 µM (active); in assay [6], 29.9 µM (inactive). Moreover, the GI50 in [7] is 22.1 µM (inactive); in assay [8], 14.5 µM (inactive); in assay [9], 37 µM (inactive); in assay [10], 51.1 µM (inactive); in assay [11], > 100 µM (inactive); in assay [12], > 100 µM (inactive). Besides, the GI50 in assay [13] was 18 µM (inactive); in assay [14] it was 0.535 µM (active); in assay [15] it was 29.9 µM (inactive); in assay [16] it was 49.5 µM (inactive); in assay [17], 27.7 µM (inactive); in [19], > 100 µM (inactive). Further, in [20], the GI50 is 25.4 µM (inactive).
With `COc1cc2c(cc1OC)C(N)CC2=O` (configuration not stated), the GI50 in assay [1], in [2], in assay [3], in assay [4], in assay [5] and in assay [6] was > 100 µM (inactive) each time. The GI50 in [7] was > 100 µM (inactive); in [8] it was 9.06 µM (inactive); in [9], > 100 µM (inactive); in assay [10] it was > 100 µM (inactive); in assay [11], > 100 µM (inactive); in assay [12], > 100 µM (inactive). The GI50 in [13], in assay [14], in assay [15], in assay [16], in assay [17] and in assay [18] was > 100 µM (inactive) each time. Further, the GI50 in [19] and in [20] was > 100 µM (inactive) in each case.
As for `Cc1ccc(/N=N/c2c(C)nn(C(=O)CC(=O)Nc3ccccc3)c2C)cc1C`, the GI50 in [1], in assay [2], in assay [3], in assay [4], in assay [5] and in assay [6] was > 100 µM (inactive) each time. In addition, the GI50 in assay [7], in assay [8], in assay [9], in [10], in assay [11] and in [12] was > 100 µM (inactive) in each case. In addition, the GI50 in [13], in assay [14], in [15], in assay [16], in assay [17] and in assay [18] was > 100 µM (inactive) in each case. Besides, the values for the GI50 in assay [19] and in assay [20] were > 10 µM (inactive) and > 100 µM (inactive), respectively.
For the compound `COc1ccc(/C=C/C(=O)N[C@@H]2C(=O)N3[C@@H]2SC(C)(C)[C@@H]3C(=O)O)cc1`, the GI50 is > 100 µM (inactive) in [1]; > 100 µM (inactive) in [2]; > 100 µM (inactive) in [3]; > 100 µM (inactive) in assay [4]; > 100 µM (inactive) in assay [5]; 47.8 µM (inactive) in assay [6]. The GI50 is > 100 µM (inactive) in assay [7]; > 100 µM (inactive) in [8]; 69.2 µM (inactive) in assay [9]; > 100 µM (inactive) in assay [10]; > 100 µM (inactive) in assay [11]; > 100 µM (inactive) in assay [12]. Further, the GI50 in assay [13], in assay [14], in [15], in [16], in assay [17] and in assay [18] was > 100 µM (inactive) throughout. Besides, the GI50 in assay [19] and in assay [20] was > 100 µM (inactive) each time.
With `CCOC(=O)C1(Cc2ccc(C)cc2)Cc2ccc(C)cc2C1=O` (configuration not stated), the GI50 in assay [1] was 31.1 µM (inactive); in assay [2] it was 19.5 µM (inactive); in assay [3], 8.05 µM (inactive); in [4] it was 6.73 µM (inactive); in assay [5], 21.1 µM (inactive); in assay [6], 14.6 µM (inactive). The GI50 in assay [7] was 9.59 µM (inactive); in assay [8] it was 35.2 µM (inactive); in assay [9] it was 6.34 µM (inactive); in [10] it was 5.01 µM (inactive); in assay [11], 52.5 µM (inactive); in assay [12], 26 µM (inactive). Further, the GI50 is 4.6 µM (inactive) in assay [13]; 19.8 µM (inactive) in assay [14]; 6.4 µM (inactive) in [15]; 14.9 µM (inactive) in assay [16]; 3.61 µM (inactive) in [17]; 23.5 µM (inactive) in [18]. Further, the GI50 is 18.9 µM (inactive) in assay [19] and 11.8 µM (inactive) in assay [20].
With `COc1ccc2nc(/C(N)=C\C#N)ccc2c1`, the GI50 in [1] was 34.7 µM (inactive); in assay [2], > 100 µM (inactive); in [3] it was 40.3 µM (inactive); in assay [4], 20.3 µM (inactive); in [5] it was > 100 µM (inactive); in [6], 91.8 µM (inactive). For the same compound, the GI50 in assay [7] was 42.1 µM (inactive); in [8], > 100 µM (inactive); in assay [9], 37 µM (inactive); in [10], 30.8 µM (inactive); in assay [11] it was > 100 µM (inactive); in [12] it was 43.7 µM (inactive). Moreover, the GI50 in assay [13] was 1.89 µM (inactive); in assay [14], 46 µM (inactive); in assay [15], 11.9 µM (inactive); in assay [16], 57.5 µM (inactive); in assay [17] it was 22.3 µM (inactive); in assay [18], 59.2 µM (inactive). Besides, the GI50 in [19] was > 100 µM (inactive); in assay [20] it was 6.58 µM (inactive).
In the case of `O=[N+]([O-])c1ccc2nnnn2c1`, the GI50 in assay [1] is 22.2 µM (inactive); in [2], 17.6 µM (inactive); in assay [4] it was 4.18 µM (inactive); in assay [5], 31 µM (inactive); in assay [6], 96.6 µM (inactive); in assay [7] it was 13.8 µM (inactive). The GI50 in [8] was 12.3 µM (inactive); in assay [9], 3.39 µM (inactive); in assay [10] it was 25.5 µM (inactive); in assay [11], 41.4 µM (inactive); in assay [12], > 100 µM (inactive); in [13], > 100 µM (inactive). Also, the GI50 in [14] was 14.9 µM (inactive); in assay [15] it was 18 µM (inactive); in assay [16] it was 19.8 µM (inactive); in assay [17] it was 4.76 µM (inactive); in assay [18], 48.3 µM (inactive); in assay [19], 27.8 µM (inactive). Besides, the GI50 in assay [20] is 13.4 µM (inactive).
Consider `COc1ccc2c3c(ccc2c1)NC(C(=O)O)CC3` (configuration not stated), for which the GI50 was 97.7 µM (inactive) in assay [1]; 88.3 µM (inactive) in assay [2]; 80.2 µM (inactive) in [4]; 80.5 µM (inactive) in [5]; 79.4 µM (inactive) in assay [6]; 45.1 µM (inactive) in [7]. In addition, the GI50 in assay [8] was > 100 µM (inactive); in assay [9] it was 29.2 µM (inactive); in [10] it was 46.3 µM (inactive); in [11], > 100 µM (inactive); in [12], 74.6 µM (inactive); in assay [13] it was > 100 µM (inactive). The GI50 was 80.4 µM (inactive) in assay [14]; 27.4 µM (inactive) in [15]; 63.1 µM (inactive) in assay [16]; 18.5 µM (inactive) in [17]; 52.1 µM (inactive) in assay [18]; > 100 µM (inactive) in [19]. The GI50 in assay [20] is 40.5 µM (inactive).
